Experiment: Electrical conductivity of borax, silane polyether and borax-SPE complex solutions
Assay type: physicochemical
Details: for Conductivity: 25° C., 20 ml solution
Protocol: Electrical conductivity is an effective quantitative tool to study complex formation in water for the system of a weak acid and a weak base. In the current study, the silane polyether acts as the weak acid (pH around 6) and borax acts as the weak base (pH around 9). The following analyses were carried out at 25° C. using a 20 ml solution of borax or SPE-1. Conductivity was measure at 45 minutes (immediately after complexation). The results are reported in Table 4a in units of microSiemens per centimeter (μS/cm).
The electrical conductivity of 0.025 M solutions of borax-SPE complex were prepared at various molar ratios of borax to silane polyether (B:S). The following analyses were carried out at 25° C. using a 20 ml solution. Conductivity was measure at 45 minutes and again after 24 hours to assess the stability of the complex.

## O=BOB(O)OB(O)OB=O [Borax, borax (Na2B4O7.10H2O)]
0.0005M
  Conductivity: 133 μS/cm
0.001M
  Conductivity: 260 μS/cm
0.005M
  Conductivity: 853 μS/cm
0.01M
  Conductivity: 1225 μS/cm
0.05M
  Conductivity: 4530 μS/cm
0.1M
  Conductivity: 9000 μS/cm
Weak acid / weak base in water
  pH: around 9

— US9693563B2, “Boron-silane polyether complex” (3M INNOVATIVE PROPERTIES COMPANY, priority 2013, dated 2017)
